We go through 3 compounds from patent publication US20250127766A1, “METHODS AND COMPOSITIONS FOR TREATING CDKL5 DISORDER USING MONOAMINE OXIDASE INHIBITORS” (priority 2023, published 2025).

The subject of assay [1] is seizures in animal models. The conditions noted are these: cited from earlier work.
Assay [2] has as its system oxidative damage of neurons. The conditions noted are these: cited from earlier work.
The next assay has as its target T1, MAO-B (Homo sapiens, UniProt P27338).
T1 sequence (P27338 1-520): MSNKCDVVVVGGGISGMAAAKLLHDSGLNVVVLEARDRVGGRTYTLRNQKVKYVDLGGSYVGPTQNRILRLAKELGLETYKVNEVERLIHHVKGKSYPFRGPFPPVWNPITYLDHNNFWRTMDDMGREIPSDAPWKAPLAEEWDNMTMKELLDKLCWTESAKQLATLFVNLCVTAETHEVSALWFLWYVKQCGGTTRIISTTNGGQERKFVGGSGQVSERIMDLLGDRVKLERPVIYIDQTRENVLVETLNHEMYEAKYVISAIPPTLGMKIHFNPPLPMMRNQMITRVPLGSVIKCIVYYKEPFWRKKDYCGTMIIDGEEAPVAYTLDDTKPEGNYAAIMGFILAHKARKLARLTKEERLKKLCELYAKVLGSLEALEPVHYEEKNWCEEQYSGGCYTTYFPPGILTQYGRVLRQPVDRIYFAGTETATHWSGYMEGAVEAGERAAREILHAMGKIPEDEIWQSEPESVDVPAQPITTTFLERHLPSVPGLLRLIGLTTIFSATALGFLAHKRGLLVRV
In words: MAO-B inhibitory activity. In kind it is biochemical. The text has this:
Though its MAO-B inhibitory activity is not as potent as that of other compounds such as safinamide, its ability to mildly modulate neurotransmitter levels, particularly dopamine and serotonin, may be beneficial in improving synaptic communication in CDD. In addition to its interaction with the monoamine pathways, liquiritin's anti-inflammatory properties may aid in reducing the neuroinflammation often observed in CDKL5-deficient patients. By targeting both neurotransmitter regulation and inflammatory processes, liquiritin offers a dual mechanism that may be effective in restoring synaptic balance.

In the next assay the test system is EB2 phosphorylation. Briefly: EB2 phosphorylation in CDKL5 knockout (KO) mouse model. In kind it is in vivo. The conditions noted are these: knockout (KO) male and Het female mice; compared with vehicle (drinking water). The protocol:
In this context, EB2 phosphorylation acts as a functional molecular readout for the disease-modifying potential of small molecules, such as monoamine oxidase inhibitors (MAO-Is). When studying the efficacy of potential therapies for CDD, the measurement of EB2 phosphorylation levels can provide insight into whether the treatment is capable of compensating for the dysfunctional CDKL5 protein.
To evaluate the impact of MAO-Is on EB2 phosphorylation, an in vivo study was conducted using a well-established CDKL5 knockout (KO) mouse model, specifically the B6.129(FVB)-Cdk15tm1.1Joez/J strain from Jackson Laboratories. […] These mice provide a relevant model for testing how pharmacological agents such as MAO-Is can modulate neuronal activity and potentially restore normal function in the absence of CDKL5.
The increase in EB2 phosphorylation in these models provides compelling evidence that MAO-Is offer a disease-modifying therapeutic approach for patients with CDKL5 deficiency disorder, by targeting key molecular pathways involved in synaptic transmission and brain development.

The test system of another assay is CDKL5 knockout mice. In words: In vivo studies in CDKL5 knockout mice: synaptic transmission and neuronal connectivity. The method, then:
This dosing regimen may serve as a reference point for establishing human doses. Extrapolating from these animal models, an initial dosing range for children of 1 to 2 mg/kg per day. This range can be adjusted depending on the individual's size and response, with a narrower range of 1.5 to 2 mg/kg per day for more precise dosing or even tighter to 1.75 to 2 mg/kg per day in specific cases. For broader clinical flexibility, a starting range of 0.5 to 3 mg/kg per day might be considered for pediatric populations, with adjustments based on individual tolerance and therapeutic outcomes.
In in vivo studies, animal models of neurodevelopmental disorders, including CDKL5 knockout mice, have been treated with liquiritin to assess its impact on synaptic transmission and neuronal connectivity.

The subject of another assay is microglial cells. In words: Microglial activity. The text has this: This activation is associated with the release of proinflammatory cytokines, which promote neuroinflammatory processes.
The target in another assay is T2, DYRK1A (Homo sapiens, UniProt Q13627).
T2 construct: endogenous in cells; host or cells: CDKL5-deficient organoids
In words: DYRK1A activity in harmine-treated organoids. The class given is cell-based. From the text:
DYRK1A is a kinase that adds phosphate groups to proteins, thereby regulating their function. In CDKL5 deficiency, the lack of CDKL5-mediated regulation leads to overactivation of DYRK1A, resulting in dysregulated synaptic signaling and impaired neuronal communication. Harmine, by selectively inhibiting DYRK1A, restores the phosphorylation balance at the synapse, preventing over-phosphorylation of critical synaptic proteins. This modulation of synaptic signaling pathways by harmine contributes to the restoration of neuronal connectivity and the normalization of network activity in the treated organoids.

The test system of a further assay is GABA receptor. The conditions noted are these: in vitro; cited from earlier work.
For assay [3], the system named is proinflammatory cytokines and chemokines. In words: Production and release of proinflammatory cytokines and chemokines.
The test system of assay [4] is CDKL5-deficient organoids. Briefly: Network activity of organoids derived from patient iPSCs. The class given is cell-based, human. The conditions noted are these: CDKL5-deficient organoids treated with harmine. The method, then:
Another set of experiments was conducted using organoids derived from patient-induced pluripotent stem cells (iPSCs). Organoids are three-dimensional structures created from stem cells that closely resemble specific organs or tissues in terms of cellular composition, architecture, and function. These structures are widely used in biomedical research because they replicate the complexity of real organs, including their multiple cell types, tissue-specific structures, and the functions of the organ being modeled. In this study, organoids were generated to mimic the neuronal network of patients with CDKL5 deficiency disorder (CDD), providing a model system to explore the underlying mechanisms of the disorder and test potential therapeutic approaches.
Increased network excitability refers to an overactive state where neurons fire excessively, a characteristic associated with the seizure activity observed in CDD patients. Altered synchrony in the neuronal network reflects disrupted communication between neurons, contributing to cognitive impairments.

Take `C[C@H](NCc1ccc(OCc2cccc(F)c2)cc1)C(N)=O` [safinamide]: the anticonvulsant properties result in assay [1] was “suppress seizures and provide neuroprotective effects”.

For `O=C1C[C@@H](c2ccc(O[C@@H]3O[C@H](CO)[C@@H](O)[C@H](O)[C@H]3O)cc2)Oc2cc(O)ccc21` [liquiritin], the antioxidant activity result in assay [2] is listed as “demonstrated antioxidant activity”. Also, the MAO-B inhibitory activity result on MAO-B is given as “weak MAO-B inhibitor”. In addition, the EB2 phosphorylation levels result with EB2 phosphorylation is recorded as “effective in increasing EB2 phosphorylation levels”. The synaptic function entry with CDKL5 knockout mice (animal models including CDKL5 knockout mice) is reported as “moderate improvements in synaptic function”.

In the case of `COc1ccc2c(c1)[nH]c1c(C)nccc12` [harmine], the “microglial activity (overactivation)” value in the assay with microglial cells is given as “reducing their overactivation”. Besides, the DYRK1A activity result on DYRK1A is listed as “modulation of DYRK1A activity”. Moreover, in the assay on GABA receptor, the GABA receptor activity result was “increases GABA receptor activity”. The “production and release of proinflammatory cytokines and chemokines” value in assay [3] was “inhibits the production and release of proinflammatory cytokines and chemokines”. In addition, in assay [4], the burst firing patterns result was “normalized the burst firing patterns”, the network excitability entry is listed as “reduced network excitability” and the neuronal synchrony result was “improved neuronal synchrony”. Besides, the “efficacy of the dosing regimen” value with CDKL5 knockout mice (30 mg/kg intraperitoneally, 5 days on, 2 days off, another 5-day cycle) is recorded as “has shown efficacy”. In the assay on CDKL5 knockout mice (CDKL5 knockout mice), the neurological outcomes is listed as “improved neurological outcomes”; the “synaptic transmission and neuronal connectivity” value is “significant improvements in synaptic transmission and neuronal connectivity”.
